Test results as given in ChEMBL document CHEMBL1127890, “Syntheses of new bacteriochlorins and their antitumor activity” (1994).

Experiments:
Type in all cases: functional
Conditions in all cases: route intravenous
Mus musculus [1] = assay: In vivo tumor response 3 hour after post i.v. injection at a dose of 5 mg/kg in DBA/2 mice having SMT/F tumor after 1-2 days
Mus musculus [2] = assay: In vivo tumor response 3 hour after post i.v. injection at a dose of 5 mg/kg in DBA/2 mice having SMT/F tumor after 30 days
Mus musculus [3] = assay: In vivo tumor response 3 hour after post i.v. injection at a dose of 5 mg/kg in DBA/2 mice having SMT/F tumor after 7 days
Mus musculus [4] = assay: In vivo tumor response 3 hour after post i.v. injection at a dose of 5 mg/kg in DBA/2 mice having SMT/F tumor after 21 days

Structure (SMILES) | Tumor response (Mus musculus [1]) | Tumor response (Mus musculus [2]) | Tumor response (Mus musculus [3]) | Tumor response (Mus musculus [4])
CCOC(=O)C(N)CCCCN1C(=O)C2=C(C)c3cc4[nH]c(cc5[nH]c(cc6nc(c(c2n3)C1=O)[C@@H](CCC(=O)OC)[C@@H]6C)c(C)c5C=O)C(C)(O)C4(O)CC (some centres undefined) | 100% | 20% | 100% | 20%
CCC1(O)c2cc3nc4c(c5nc(cc6[nH]c(cc([nH]2)C1(C)O)c(C=O)c6C)[C@@H](C)[C@@H]5CCC(=O)NC(CC(=O)OC(C)(C)C)C(=O)OC(C)(C)C)C(=O)OC(=O)C4=C3C (some centres undefined) | 100% | 80% | 100% | 80%
CCC1(O)c2cc3nc4c(c5nc(cc6[nH]c(cc([nH]2)C1(C)O)c(C=O)c6C)[C@@H](C)[C@@H]5CCC(=O)OC)C(=O)OC(=O)C4=C3C (some centres undefined) | 0% | – | – | –
